Laboratory results published in patent US20250296971A1, “GASTRIC INHIBITORY PEPTIDE RECEPTOR LIGANDS” (priority 2021, published 2025).
Read-outs that look alike come from different tables or passages of the source. *1 amine or outer side, *2 acyl side, *3 side chain or, on linkers, in order; H or OH if unused. Where a SMILES comes first, the peptide text is derived from it. Bridges are numbered along the chain shown (N, C = ends). Side-chain parts run from the residue outwards. [ ]: non-standard residue; d: D form. The star is where a group is joined. X5 = NC(=O)[C@H](CCCCNC(=O)CN1CCN(CC(=O)O)CCN(CC(=O)O)CCN(CC(=O)O)CC1)NC(=O)CCC(=O)NCCCOCCOCCOCCCN*; X3 = O=C(O)CN1CCN(CC(=O)O)CCN(CC(=O)NCCCOCCOCCOCCCN*)CCN(CC(=O)O)CC1; NH(1-deoxy-D-glucityl) = OC[C@@H](O)[C@@H](O)[C@H](O)[C@@H](O)CN*; Pro(trans-4-NH2) = O=C([C@@H]1C[C@@H](N[*:3])CN1[*:1])[*:2]; DOTA = O=C(O)CN1CCN(CC(=O)O)CCN(CC(=O)*)CCN(CC(=O)O)CC1; Trp(5-Cl) = N[C@@H](Cc1c[nH]c2ccc(Cl)cc12)C(=O)O; Pyridine(2,6-diCH2) = c1cc(C[*:1])nc(C[*:2])c1; X4 = O=C(NCCN[*:2])c1cccc(C[*:1])c1; Glutaryl = O=C(CCCC(=O)[*:2])[*:1]; Hyp = O=C(O)[C@@H]1C[C@@H](O)CN1; X1 = O=C(CN1CCC(N[*:1])CC1)[*:2]; Suc = O=C(CCC(=O)[*:2])[*:1]; hSer = N[C@@H](CCO)C(=O)O; Api = NC1(C(=O)O)CCNCC1; Thp = NC1(C(=O)O)CCOCC1; Aib = CC(C)(N)C(=O)O

What was measured:
[1] = target: T1, GIPR (CHO-K1-hGIPR cells) (Homo sapiens, UniProt P48546); assay: FACS binding assay; settings: read-out: pIC50 Category (converted)
T1 construct: host or cells: CHO-K1
T1 sequence (P48546 22-466): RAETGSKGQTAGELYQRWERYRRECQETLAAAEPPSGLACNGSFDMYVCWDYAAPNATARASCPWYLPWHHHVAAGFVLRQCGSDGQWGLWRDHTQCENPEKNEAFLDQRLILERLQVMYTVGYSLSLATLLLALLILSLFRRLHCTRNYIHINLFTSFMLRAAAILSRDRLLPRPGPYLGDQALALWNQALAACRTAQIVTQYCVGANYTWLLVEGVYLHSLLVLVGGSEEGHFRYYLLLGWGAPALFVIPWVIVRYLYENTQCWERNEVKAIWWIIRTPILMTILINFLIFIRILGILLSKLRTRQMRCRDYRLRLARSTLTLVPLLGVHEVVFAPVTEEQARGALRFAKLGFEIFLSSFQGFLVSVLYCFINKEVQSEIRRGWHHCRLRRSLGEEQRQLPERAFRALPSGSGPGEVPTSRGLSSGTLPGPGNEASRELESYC
Outline: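 CHO-K1 cells expressing human GIPR, washed in PBS/1% FCS, then stained with 1 μg/mL APC-streptavidin for 30 min on ice.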

[2] = target: T2, human GIP receptor (bioGIPR) (Homo sapiens, UniProt P48546); assay: Surface plasmon resonance (SPR) based binding assay; settings: Single Cycle Kinetic mode, 25° C.; for t1/2 Category: SPR dissociation half-life; for Kd: SPR, 1:1 Langmuir binding model, read-out: pKD Category (converted)
T2 construct: Biotinylate extracellular of the human GIP receptor (bioGIPR, Proteros biostructures GmbH, lot #02/2b); purchased Proteros biostructures GmbH lot #02/2b
T2 sequence (P48546 22-138 limits assumed): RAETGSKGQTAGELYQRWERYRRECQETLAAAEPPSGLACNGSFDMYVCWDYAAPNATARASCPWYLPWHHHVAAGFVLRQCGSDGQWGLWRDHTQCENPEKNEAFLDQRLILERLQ
Protocol: Surface plasmon resonance (SPR) studies were performed using a Biacore™ T200 SPR system. Briefly, polarized light is directed towards a gold-labeled sensor surface, and minimum intensity reflected light is detected. The angle of reflected light changes as molecules bind and dissociate.
Biotinylate extracellular of the human GIP receptor (bioGIPR, Proteros biostructures GmbH, lot #02/2b) was captured on a biotin capture chip (Biotin CAPture Kit, Series S, GE Healthcare, Cat #28-9202-34). bioGIPR was diluted in Running Buffer (HBST from Xantec Analytics; […], 0.05% Tween20, 0.1% DMSO) to a final concentration 100 nM and than flushed over the Fc-capture chip to immobilized ˜3500 RUs.
Stock solutions of test compounds were prepared by dissolving each compound in DMSO. DMSO stock solution were diluted 1:1000 in Running Buffer without DMSO. Further sequential dilutions were made with Running Buffer containing 0.1% DMSO. SPR binding analyses were performed in Single Cycle Kinetic (SCK) mode at 25° C. Flow cell without immobilized bioGIPR served as reference flowcell. After each SCK run, bioGIRP and the Biotin Capture Reagent was removed with Regeneration Solution (6 M Guanidium, 0.75 M NaOH).
In between every three SCK measurements, a blank run with Running Buffer instead of test compound was included to correct for baseline drifts (double blanking method).
For each test compound, SPR raw data in the form of resonance units (RU) were plotted as sensorgrams using the Biacore™ T200 control software. The signal from the blank sensorgram was subtracted from that of the test compound sensorgram (blank corrected). The blank corrected sensorgram was corrected for baseline drift by subtracting the sensorgram of a SCK run without the test compound (running buffer only). The association rate (kon), dissociation rate (koff), dissociation constant (KD), and t1/2 were calculated from blank corrected SPR data using the 1:1 Langmuir binding model from the Biacore™ T200 evaluation software. Raw data and fit results were imported as text files in IDBS. The pKD value (negative decadic logarithm of dissociation constant) was calculated in the IDBS excel template.

[3] = competition with 20 nM GIP-057, 4° C., 1 hour
[4] = competition with 20 nM GIP-057, 4° C. for 1 hour

SMILES	IC50 [1, 3]	t1/2 Category [2]	Kd [2]	IC50 [1, 4]
CC[C@H](C)[C@@H]1NC(=O)[C@H](CC(C)C)NC(=O)C2(CCOCC2)NC(=O)[C@@H](NC(=O)[C@@H](CC(C)C)NC(=O)[C@H](CCC(=O)O)NC(=O)[C@@H]2C[C@@H](O)CN2C(=O)[C@H](Cc2c[nH]c3ccc(Cl)cc23)NC(=O)[C@H](Cc2c[nH]c3ccccc23)NC(=O)CCC(=O)O)CSCc2cccc(n2)CSC[C@@H](C(=O)NCCCOCCOCCOCCCNC(=O)CCC(=O)N[C@@H](CCCCNC(=O)CN2CCN(CC(=O)O)CCN(CC(=O)O)CCN(CC(=O)O)CC2)C(N)=O)NC1=O [GIP-108, HO-Succinyl-Trp-5Clw-Hyp-Glu-leu-[Cys(2Lut)-Thp-Leu-Ile-Cys]-Ttds-Lys(DOTA)-NH2] (Suc-W[Trp(5-Cl)][Hyp]E[dL]C[Thp]LIC-X5; linker 6-10 via Pyridine(2,6-diCH2))	< 10 nM	A (t1/2 values>15 min)	< 1 nM	–
CC[C@H](C)[C@@H]1NC(=O)[C@H](CC(C)C)NC(=O)C2(CCOCC2)NC(=O)[C@@H](NC(=O)[C@@H](CC(C)C)NC(=O)[C@H](Cc2c[nH]cn2)NC(=O)[C@@H]2C[C@@H](O)CN2C(=O)[C@H](Cc2c[nH]c3ccc(Cl)cc23)NC(=O)[C@H](Cc2c[nH]c3ccccc23)NC(=O)[C@H](CC(=O)O)NC(C)=O)CSCc2cccc(n2)CSC[C@@H](C(N)=O)NC1=O [GIP-377, Ac-Asp-Trp-5Clw-Hyp-His-leu-[Cys(2Lut)-Thp-Leu-Ile-Cys]-NH2] (Ac-DW[Trp(5-Cl)][Hyp]H[dL]C[Thp]LIC-NH2; linker 7-11 via Pyridine(2,6-diCH2))	–	A (t1/2 values>15 min)	1 to 7.94 nM	< 10 nM
CC[C@H](C)[C@@H]1NC(=O)[C@H](CC(C)C)NC(=O)C2(CCN(C(=O)CN3CCN(CC(=O)O)CCN(CC(=O)O)CCN(CC(=O)O)CC3)CC2)NC(=O)[C@@H](NC(=O)[C@@H](CC(C)C)NC(=O)[C@H](CCO)NC(=O)[C@@H]2C[C@@H](NC(=O)CCCC(=O)NC[C@H](O)[C@@H](O)[C@H](O)[C@H](O)CO)CN2C(=O)[C@H](Cc2c[nH]c3ccc(Cl)cc23)NC(=O)[C@H](Cc2c[nH]c3ccccc23)NC(=O)[C@H](CO)NC(=O)CN2CCC(NC(=O)CCCC(=O)NC[C@H](O)[C@@H](O)[C@H](O)[C@H](O)CO)CC2)CSCc2cccc(n2)CSC[C@@H](C(=O)NC2CCN(CC(=O)N[C@H](CCC(=O)NC[C@H](O)[C@@H](O)[C@H](O)[C@H](O)CO)C(N)=O)CC2)NC1=O [GIP-046, AGLU-Glutar-APAc-Ser-Trp-5Clw-Tap(AGLU-Glutar)-Hse-leu-[Cys(2Lut)-Apc(DOTA)-Leu-Ile-Cys]-APAc-glu(AGLU)-NH2] ({NH(1-deoxy-D-glucityl)-Glutaryl}-[X1]SW[Trp(5-Cl)][Pro(trans-4-NH2)]([Glutaryl-NH(1-deoxy-D-glucityl)])[hSer][dL]C[Api](DOTA)LIC[X1][dE](NH(1-deoxy-D-glucityl))-NH2; linker 8-12 via Pyridine(2,6-diCH2))	10 to 79.4 nM	D (t1/2<2.0 min)	1 to 7.94 nM	–
CC[C@H](C)[C@@H]1NC(=O)[C@H](CC(C)C)NC(=O)C(C)(C)NC(=O)[C@@H](NC(=O)[C@@H](CC(C)C)NC(=O)[C@H](CCC(=O)O)NC(=O)[C@@H]2CCCN2C(=O)[C@H](Cc2c[nH]c3ccc(Cl)cc23)NC(=O)[C@H](Cc2c[nH]c3ccccc23)NC(=O)[C@H](CC(=O)O)NC(=O)CCC(=O)NCCCOCCOCCOCCCNC(=O)CN2CCN(CC(=O)O)CCN(CC(=O)O)CCN(CC(=O)O)CC2)CSCc2cccc(c2)C(=O)NCCNC1=O [GIP-359, DOTA-Ttds-Asp-Trp-5Clw-Pro-Glu-leu-[Cys(3CbBn)-Aib-Leu-Ile-en]] ({X3-Suc}-DW[Trp(5-Cl)]PE[dL]C[Aib]LI; linker 7-C via X4)	–	C (t1/2 between 5 min and 2.1 min)	1 to 7.94 nM	10 to 79.4 nM
